Measured values: US20250108048A1, “STING AGONIST COMPOUNDS AND CONJUGATES” (SUTRO BIOPHARMA, INC., priority 2023, published 2025)
Read-outs that look alike come from different tables or passages of the source.

What was measured:
hSTING-R232 = target: T1, hSTING-R232 (Homo sapiens, UniProt Q86WV6, H232R); experiment: THP1-Dual KI-hSTING-R232 reporter assay (IRF pathway, secreted Lucia luciferase); type: cell-based; details: THP1-Dual KI-hSTING-R232 cells, 24 hours; read-out: Reporter assay EC50 (nM) THP-1-R232
T1 construct: host or cells: THP1-Dual KI-hSTING-R232 (from THP1-Dual KO-STING)
T1 sequence (Q86WV6 whole entry H232R): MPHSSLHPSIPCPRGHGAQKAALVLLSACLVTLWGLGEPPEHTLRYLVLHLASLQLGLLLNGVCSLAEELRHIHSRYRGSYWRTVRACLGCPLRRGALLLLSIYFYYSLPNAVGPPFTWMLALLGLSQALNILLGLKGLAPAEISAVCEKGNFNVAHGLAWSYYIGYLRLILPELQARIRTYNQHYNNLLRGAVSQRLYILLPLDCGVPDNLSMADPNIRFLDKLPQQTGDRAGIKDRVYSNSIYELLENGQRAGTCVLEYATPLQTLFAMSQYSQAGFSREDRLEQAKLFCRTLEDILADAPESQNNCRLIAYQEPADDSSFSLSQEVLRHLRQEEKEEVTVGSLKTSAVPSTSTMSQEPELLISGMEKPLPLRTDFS
Experimental: (§1) The activities of the STING agonists to activate human or mouse STING pathways were evaluated in THP-1-Dual™, THP1-Dual™ KI-hSTING-R232, THP1-Dual™ KI-hSTING-H232 Cells and THP1-Dual™ KI-mSTING Cells. THP-1-Dual™ cells contains hSTING-HAQ haplotype and can be used to evaluate the activity of STING agonists by monitoring the activation of NF-κB pathway and the […] (IFN regulatory factor) pathways. THP1-Dual™ KO-STING cells were generated from THP1-Dual™ cells by stable knockout of the endogenous HAQ STING gene. THP1-Dual™ KI-hSTING-R232 cells, THP1-Dual™ KI-hSTING-H232 cells and THP1-Dual™ KI-mSTING cells were generated by transfecting THP1-Dual™ KO-STING cells with hSTING-R232 or hSTING-H232 or mSTING. Stimulating these reporter cells with a STING agonist activates TRF pathway and induces the production of a secreted Lucia luciferase in the cell culture medium, which can be determined using QUANTI-Luc™ reagent.
(§2) THP-1-Dual™, THP1-Dual™ KI-hSTING-R232, THP1-Dual™ KI-hSTING-H232 and THP1-Dual™ KI-mSTING reporter cells were purchased from Invivogen and maintained in manufacture recommended culture medium with required supplemental antibiotics. On the day of assay, the cells were harvested with Accutase and counted by the Vi-CELL Cell Viability Analyzers. Cells were resuspended in HEK blue detection medium and a total of 10000 cells were seeded in each well of a 384-well flat bottom plate. […] After incubation at 37° C. in a CO2 incubator for 24 hours, 20 μl of cell culture medium per well was transferred into a 384-well white (opaque) plate. 50 μl of QUANTI-Luc™ assay solution was then added to each well and the plate was immediately transferred to an ENVISION® plate reader to measure luminescence (Perkin-Elmer). Relative luminescence readings were converted to fold change of signal using untreated cells as controls. Data was fitted with non-linear regression analysis, using log (agonist) vs. response, variable slope, 4-parameter fit equation using GraphPad Prism. Data was expressed as fold change in signal vs. dose of STING agonist in nM with error bars indicating the Standard Deviation (SD) of the quadruplicates. There result was reported in Table 2 as EC50 (the midpoint of the curve, or concentration at which […] of the maximum effect was observed).

hSTING-HAQ haplotype = target: T2, hSTING-HAQ haplotype (Homo sapiens, UniProt Q86WV6, G230A/H232R/R293Q/R71H); experiment: THP-1-Dual reporter assay (endogenous hSTING-HAQ); type: cell-based; details: THP-1-Dual cells (hSTING-HAQ), 24 hours
T2 construct: host or cells: THP-1-Dual
T2 sequence (Q86WV6 whole entry R71H/G230A/H232R/R293Q): as the sequence (Q86WV6 whole entry H232R) above, with R71H, G230A, R293Q counted along it
Experimental: as §1, §2

mSTING = target: T3, mSTING (Mus musculus, UniProt Q3TBT3); experiment: 293-mSTING reporter assay; type: cell-based
T3 sequence (Q3TBT3 1-378): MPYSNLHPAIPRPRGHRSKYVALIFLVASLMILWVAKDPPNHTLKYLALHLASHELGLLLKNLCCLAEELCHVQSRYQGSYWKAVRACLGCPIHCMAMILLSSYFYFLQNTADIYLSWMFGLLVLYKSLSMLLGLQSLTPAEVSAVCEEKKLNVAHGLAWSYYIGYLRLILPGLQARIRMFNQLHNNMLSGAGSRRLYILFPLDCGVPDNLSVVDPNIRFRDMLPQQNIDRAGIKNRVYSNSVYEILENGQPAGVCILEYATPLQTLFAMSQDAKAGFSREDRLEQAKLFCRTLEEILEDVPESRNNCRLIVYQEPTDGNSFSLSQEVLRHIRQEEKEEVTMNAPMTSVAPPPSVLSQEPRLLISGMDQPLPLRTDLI

hSTING WT = hSTING WT (Homo sapiens, UniProt Q86WV6); experiment: Surface plasmon resonance, hSTING WT; type: binding; details: read-out: hSTING WT SPR (Kd)
Sequence of hSTING WT (Q86WV6 whole entry H232R): as the sequence (Q86WV6 whole entry H232R) above

hSTING H232 [1] = target: T4, hSTING H232 (Homo sapiens, UniProt Q86WV6); experiment: Surface plasmon resonance, hSTING H232; type: binding; details: read-out: hSTING H232 SPR (Kd)
T4 sequence (Q86WV6 whole entry): as the sequence (Q86WV6 whole entry H232R) above, with R232H counted along it

hSTING AQ = hSTING AQ (Homo sapiens, UniProt Q86WV6, G230A/H232R/R293Q); experiment: Surface plasmon resonance, hSTING AQ; type: binding; details: read-out: hSTING AQ SPR (Kd)
Sequence of hSTING AQ (Q86WV6 whole entry G230A/H232R/R293Q): as the sequence (Q86WV6 whole entry H232R) above, with G230A, R293Q counted along it

hSTING H232 [2] = target: T4, hSTING H232; experiment: THP1-Dual KI-hSTING-H232 reporter assay (IRF pathway, secreted Lucia luciferase); type: cell-based; design: host or cells: THP1-Dual KI-hSTING-H232 (from THP1-Dual KO-STING); details: THP1-Dual KI-hSTING-H232 cells, 24 hours; read-out: Reporter assay EC50 (nM) THP-1-H232
Experimental: as §1, §2

[3] = test system: TROP2 positive NCI-H292 Cells; experiment: Cytokine release from cancer cells (MSD); type: cell-based, human; details: 120 hours; for EC50: Homo sapiens
Experimental: The cell supernatant was collected and IP-10 and IL-6 released in the cell culture medium was measured using Streptavidin single spot 96 well plates, compatible human antibody pairs, and calibrating solutions commercially available from MesoScale Discovery. Raw data generated by the Meso Scale Discovery (MSD®) SQ120 plate reader was imported into MSD Discovery Workbench software. Unknown sample values were interpolated from standard curves by the software and imported into Graphpad Prism. Each cytokine level was fitted with non-linear regression analysis, using log (agonist) vs. response, variable slope, 4-parameter fit equation in GraphPad Prism.

NCI-H292 cells = experiment: Immunogenic cell death markers (HMGB1 release, surface calreticulin); type: cell-based, human; details: 48 hours
Experimental: Immunogenic cell death elicited by the TROP2 ADC, iSAC, and exatecan were measured by cell surface translocate of calreticulin and release of HMGB1 in the cell culture supernatant. Briefly, TROP2 positive cell line NCI-H292 were seeded into a 96-well flat bottom plate 4 hours prior to the initialization of the assay. Test articles were formulated at a 2× starting concentration in cell culture medium, and samples were serial diluted (1:3) under sterile conditions and added onto the cells in duplicates. After incubation at 37° C. in a CO2 incubator for 48 hours, the cell supernatant was collected for measuring HMGB1 and the adherent cells were collected for calreticulin expression on the cell surface.
HMGB1 released in the supernatant was assessed via sandwich ELISA using mouse anti-human HMGB1 clone 2F6 (Sigma-Aldrich) as the capture, polyclonal rabbit anti-human HMGB1 (Abcam) as secondary, and polyclonal goat anti-rabbit IgG HRP as the detection antibody. The HMGB1 concentrations in the cell culture medium were calculated based a standard curve built on commercially available recombinant human HMGB1 (R&D Systems).
NCI-H292 cells were detached using Accutase (Innovative Cell Technologies) and viability was accessed using a 1:500 dilution of Zombie NIR viability dye. […] Surface calreticulin measures on the live cells were gathered using an Attune NXT Flow Cytometer (ThermoFisher Scientific) to obtain median fluorescence intensity values. All data were fitted with non-linear regression analysis, using log(agonist) vs. response, variable slope, 4 parameter fit equation using GraphPad Prism.

EC50 (hSTING-R232) [nM]	EC50 (hSTING-HAQ haplotype) [nM]	EC50 (mSTING) [nM]	Kd (hSTING WT) [nM]	Kd (hSTING H232 [1]) [nM]	Kd (hSTING AQ) [nM]	EC50 (hSTING H232 [2]) [nM]	EC50 ([3]; read-out: IL-6 Release EC50) [nM]	EC50 ([3]; read-out: IP-10 Release EC50) [nM]	Structure (SMILES)	IL-6 Release Span [3] [pg/mL]	IP-10 Release Span [3] [pg/mL]	HMGB-1 Release Span (NCI-H292 cells) [ng/mL]	EC50 (NCI-H292 cells; Homo sapiens, sandwich ELISA, read-out: HMGB-1 Release EC50) [nM]
> 150	> 150	> 150	≤ 20	≤ 20	≤ 20	> 150			CCn1nc(C)cc1C(=O)Nc1nc2cc(C(N)=O)ccc2n1C/C=C/Cn1c(NC(=O)c2cc(C)nn2CC)nc2cc(C(N)=O)cc(OCCCN3CC4(C3)CN(C(=O)CON=C(C)c3ccc(C[C@H](N)C(=O)O)cc3)CCO4)c21 (racemic) [LP-1-4, rac-(2S)-2-amino-3-[4-[N-[2-[2-[3-[6-carbamoyl-2-[(2-ethyl-5-methyl-pyrazole-3-carbonyl)amino]-3-[rac-(E)-4-[5-carbamoyl-2-[(2-ethyl-5-methyl-pyrazole-3-carbonyl)amino]benzimidazol-1-yl]but-2-enyl]benzimidazol-4-yl]oxypropyl]-5-oxa-2,8-diazaspiro[3.5]nonan-8-yl]-2-oxo-ethoxy]-C-methyl-carbonimidoyl]phenyl]propanoic acid]				
≤ 50	≤ 50	> 150	≤ 20	≤ 20	≤ 20	≤ 50	> 100	> 100	CCn1nc(C)cc1C(=O)Nc1nc2cc(C(N)=O)ccc2n1C/C=C/Cn1c(NC(=O)c2cc(C)nn2CC)nc2cc(C(N)=O)cc(OCCCN3CC4(CNCCO4)C3)c21 [Compound 1]	>10000	>4000	17	6.06
≤ 50	50 to 150	> 150	≤ 20	≤ 20	≤ 20	≤ 50			CCn1nc(C)cc1C(=O)Nc1nc2cc(C(N)=O)ccc2n1C/C=C/Cn1c(NC(=O)c2cc(C)nn2CC)nc2cc(C(N)=O)cc(OCCCN3CC4(C3)CN(C(=O)[C@@H](N)CC(C)C)CCO4)c21 [Compound 2, (E)-7-(3-(8-(L-leucyl)-5-oxa-2,8-diazaspiro[3.5]nonan-2-yl)propoxy)-1-(4-(5-carbamoyl-2-(1-ethyl-3-methyl-1H-pyrazole-5-carboxamido)-1H-benzo[d]imidazol-1-yl)but-2-en-1-yl)-2-(1-ethyl-3-methyl-1H-pyrazole-5-carboxamido)-1H-benzo[d]imidazole-5-carboxamide]				
50 to 150	50 to 150	> 150	≤ 20	≤ 20	≤ 20	50 to 150			CCn1nc(C)cc1C(=O)Nc1nc2cc(C(N)=O)ccc2n1C/C=C/Cn1c(NC(=O)c2cc(C)nn2CC)nc2cc(C(N)=O)cc(OCCCN3CC4(C3)CN(C(=O)CN)CCO4)c21 [Compound 3]				
≤ 50	≤ 50	50 to 150	≤ 20	≤ 20	≤ 20	≤ 50			CCn1nc(C)cc1C(=O)Nc1nc2cc(C(N)=O)cc(OC)c2n1C/C=C/Cn1c(NC(=O)c2cc(C)nn2CC)nc2cc(C(N)=O)cc(OCCCN3CC4(CNCCO4)C3)c21 [Compound 6]				
> 150	50 to 150	> 150	≤ 20	≤ 20	≤ 20	> 150			CCn1nc(C)cc1C(=O)Nc1nc2cc(C(N)=O)ccc2n1C/C=C/Cn1c(NC(=O)c2cc(C)nn2CC)nc2cc(C(N)=O)cc(OCCCN3CC4(C3)CN(C(=O)CON)CCO4)c21 [LP-1-1, 7-[3-[8-(2-aminooxyacetyl)-5-oxa-2,8-diazaspiro[3.5]nonan-2-yl]propoxy]-1-[(E)-4-[5-carbamoyl-2-[(2-ethyl-5-methyl-pyrazole-3-carbonyl)amino]benzimidazol-1-yl]but-2-enyl]-2-[(2-ethyl-5-methyl-pyrazole-3-carbonyl)amino]benzimidazole-5-carboxamide]				
